One data set deals with Enterococcus faecium. The data set can be described thus: Antibacterial activity against vancomycin resistant Enterococcus faecium 419/ANA assessed as reduction in microbial growth incubated for 24 hrs by microdilution assay. In kind it is functional. In general terms: In broth dilution the organism is exposed to a series of concentrations in liquid medium.
The nature of data set [1]: Gradient chromatographic hydrophobicity index of the compound at pH 3.7 by HPLC analysis. Format: ADME.
A short description of data set [2]: Hemolytic activity in human RBC assessed as haemoglobin release measured after 3 hr. Conditions: red blood cells (erythrocytes). Format: toxicity, cell-based, Erythrocyte.
In data set [3] the test system is Escherichia coli. The data set can be described thus: Antibacterial activity against Escherichia coli ATCC 25922 = CCM 3954 assessed as inhibition of bacterial growth incubated for 24 hrs by microdilution assay. Format: functional.
For data set [4], the system named is Pseudomonas aeruginosa. The data set can be described thus: Antibacterial activity against Pseudomonas aeruginosa ATCC 27853 = CCM 3955 assessed as inhibition of bacterial growth incubated for 24 hrs by microdilution assay. Format: functional.
Data set [5] deals with Staphylococcus epidermidis. The data set can be described thus: Antibacterial activity against Staphylococcus epidermidis CCM 7221 assessed as inhibition of bacterial growth incubated for 24 hrs by microdilution assay. In kind it is functional.
Data set [6] concerns Staphylococcus aureus. The data set can be described thus: Antibacterial activity against methicillin resistant Staphylococcus aureus 4591/A assessed as reduction in microbial growth incubated for 24 hrs by microdilution assay. Format: functional.
For a further data set, the system named is Enterococcus faecalis. The data set can be described thus: Antibacterial activity against Enterococcus faecalis ATCC 29212 = CCM 4224 assessed as inhibition of bacterial growth incubated for 24 hrs by microdilution assay. In kind it is functional.
Data set [7] deals with Escherichia coli. The data set can be described thus: Antibacterial activity against multidrug-resistant Escherichia coli CE5556 expressing CTX-M-15 assessed as reduction in microbial growth incubated for 24 hrs by microdilution assay. Format: functional.
Data set [8] has as its system Staphylococcus aureus. The data set can be described thus: Antibacterial activity against Staphylococcus aureus ATCC 29213 = CCM 4223 assessed as inhibition of bacterial growth incubated for 24 hrs by microdilution assay. In kind it is functional.
Data set [9] has as its system Pseudomonas aeruginosa. The data set can be described thus: Antibacterial activity against multidrug-resistant Pseudomonas aeruginosa assessed as reduction in microbial growth incubated for 24 hrs by microdilution assay. In kind it is functional.
For data set [10], the system named is Staphylococcus aureus. The data set can be described thus: Antibacterial activity against Staphylococcus aureus ATCC 29213 = CCM 4223 assessed as inhibition of bacterial growth incubated for 24 hrs in presence of BSA by microdilution assay. Format: functional.
For data set [11], the system named is Escherichia coli. The data set can be described thus: Antibacterial activity against Escherichia coli ATCC 25922 = CCM 3954 assessed as inhibition of bacterial growth incubated for 24 hrs in presence of BSA by microdilution assay. In kind it is functional.

For eleven compounds, MIC, CHI and HC50 results are on record in ChEMBL document CHEMBL5120927, “LEGO-Lipophosphonoxins: A Novel Approach in Designing Membrane Targeting Antimicrobials” (J Med Chem, 2022).

One may read the MIC as the lowest concentration found to suppress growth. The term HC50 denotes the concentration giving 50% haemolysis.

Take `CCC/C=C\CCOP(=O)(CCN(CCN)CCN)OCCCCCCCOP(=O)(CCN(CCN)CCN)OCC/C=C\CCC.Cl.Cl.Cl.Cl.Cl.Cl` (stereo not drawn): the MIC is 128 µg/mL with Enterococcus faecium; greater than 128 µg/mL with Escherichia coli [3]; 32 µg/mL in the data set with Pseudomonas aeruginosa [4]; 0.5 µg/mL in data set [5]; 1 µg/mL with Staphylococcus aureus [6]; 16 µg/mL with Enterococcus faecalis. The MIC in the data set with Escherichia coli [7] was 32 µg/mL; in the data set on Staphylococcus aureus [8], 2 µg/mL; in the data set on Pseudomonas aeruginosa [9] it was 32 µg/mL; in the data set on Staphylococcus aureus [10] it was 4 µg/mL; with Escherichia coli [11], 16 µg/mL. The compound also returned a CHI in [1] of 37.4. In data set [2], the HC50 at 3 h is greater than 500 µg/mL.
As to `CCC/C=C\CCOP(=O)(CCN(CCCN)CCCN)OCCCCCCCCOP(=O)(CCN(CCCN)CCCN)OCC/C=C\CCC.Cl.Cl.Cl.Cl.Cl.Cl` (stereo not drawn), the MIC with Enterococcus faecium was greater than 128 µg/mL; in the data set with Escherichia coli [3] it was 1 µg/mL; with Pseudomonas aeruginosa [4], 128 µg/mL; in [5], 2 µg/mL; with Staphylococcus aureus [6] it was 4 µg/mL; with Enterococcus faecalis, 64 µg/mL. In addition, the MIC was 16 µg/mL in the data set with Escherichia coli [7]; 8 µg/mL in the data set with Staphylococcus aureus [8]; 128 µg/mL in the data set with Pseudomonas aeruginosa [9]; 8 µg/mL in the data set on Staphylococcus aureus [10]; 64 µg/mL in the data set with Escherichia coli [11]. In addition, the CHI in [1] is on record as 32.8. Besides, the HC50 at 3 h in data set [2] was greater than 200 µg/mL.
With `CCC/C=C\CCOP(=O)(CCN(CCCN)CCCN)OCCCCCCCOP(=O)(CCN(CCCN)CCCN)OCC/C=C\CCC.Cl.Cl.Cl.Cl.Cl.Cl` (stereo not drawn), the minimum inhibitory concentration (MIC) with Enterococcus faecium came out at 128 µg/mL; with Escherichia coli [3], 4 µg/mL; with Pseudomonas aeruginosa [4], 128 µg/mL; in data set [5], 2 µg/mL; with Staphylococcus aureus [6], 4 µg/mL; in the data set with Enterococcus faecalis it was 64 µg/mL. Moreover, the MIC in the data set with Escherichia coli [7] was 16 µg/mL; with Staphylococcus aureus [8], 4 µg/mL; in the data set on Pseudomonas aeruginosa [9], 128 µg/mL; with Staphylococcus aureus [10], 8 µg/mL; with Escherichia coli [11], 64 µg/mL. In data set [1], this compound registered a CHI of 31.3. Further, the HC50 at 3 h in [2] is greater than 200 µg/mL.
As to `CCCCOP(=O)(CCN(CCCN)CCCN)OCCCCCCCCOP(=O)(CCN(CCCN)CCCN)OCCCC.Cl.Cl.Cl.Cl.Cl.Cl` (stereo not drawn), the MIC in the data set with Enterococcus faecium was greater than 128 µg/mL; in the data set on Escherichia coli [3], 128 µg/mL; with Pseudomonas aeruginosa [4], greater than 128 µg/mL; in [5], 64 µg/mL; in the data set with Staphylococcus aureus [6] it was greater than 128 µg/mL; in the data set with Enterococcus faecalis, greater than 128 µg/mL. The MIC with Escherichia coli [7], with Staphylococcus aureus [8], in the data set with Pseudomonas aeruginosa [9], in the data set with Staphylococcus aureus [10] and with Escherichia coli [11] was greater than 128 µg/mL in each case. Further, in data set [1], the CHI turned out to be 11. In addition, in data set [2], the HC50 at 3 h is greater than 100 µg/mL.
For `CCCCCCCCOP(=O)(CCN(CCN)CCN)OCCCCCCCCOP(=O)(CCN(CCN)CCN)OCCCCCCCC.Cl.Cl.Cl.Cl.Cl.Cl` (stereo not drawn), the MIC in the data set on Enterococcus faecium was found to be 2 µg/mL; in the data set with Escherichia coli [3] it was 64 µg/mL; in the data set on Pseudomonas aeruginosa [4], 1 µg/mL; in data set [5], 0.2 µg/mL; with Staphylococcus aureus [6], 3 µg/mL; in the data set with Enterococcus faecalis, 1 µg/mL. In addition, the minimum inhibitory concentration (MIC) stood at 1 µg/mL with Escherichia coli [7]; 0.5 µg/mL in the data set on Staphylococcus aureus [8]; 1 µg/mL with Pseudomonas aeruginosa [9]; 0.2 µg/mL in the data set on Staphylococcus aureus [10]; 5 µg/mL in the data set with Escherichia coli [11]. In data set [1], this compound displayed a CHI of 45.2. Besides, the HC50 at 3 h in [2] was found to be 19 µg/mL.
On to `CCCCOP(=O)(CCN(CCCN)CCCN)OCCCCCCCCCCCCOP(=O)(CCN(CCCN)CCCN)OCCCC.Cl.Cl.Cl.Cl.Cl.Cl` (stereo not drawn), for which the MIC in the data set on Enterococcus faecium was greater than 128 µg/mL; in the data set with Escherichia coli [3], 128 µg/mL; in the data set with Pseudomonas aeruginosa [4], 32 µg/mL; in data set [5] it was 1 µg/mL; with Staphylococcus aureus [6] it was 4 µg/mL; with Enterococcus faecalis it was 32 µg/mL. Also, the MIC with Escherichia coli [7] was greater than 128 µg/mL; in the data set with Staphylococcus aureus [8] it was 4 µg/mL; in the data set on Pseudomonas aeruginosa [9] it was 16 µg/mL; with Staphylococcus aureus [10], 16 µg/mL; in the data set with Escherichia coli [11], 128 µg/mL. The compound further gave a CHI in data set [1] of 31.4. Moreover, the HC50 at 3 h in data set [2] was greater than 500 µg/mL.
With `Cl.Cl.Cl.Cl.Cl.Cl.N=C(N)NCCCN(CCCNC(=N)N)CCP(=O)(OCCCCCOP(=O)(CCN(CCCNC(=N)N)CCCNC(=N)N)OCC12CC3CC(CC(C3)C1)C2)OCC12CC3CC(CC(C3)C1)C2` (stereo not drawn), the MIC with Enterococcus faecium was 8 µg/mL; in the data set with Escherichia coli [3], 1 µg/mL; in the data set on Pseudomonas aeruginosa [4], 8 µg/mL; in data set [5], 0.5 µg/mL; in the data set on Staphylococcus aureus [6] it was 1 µg/mL; in the data set on Enterococcus faecalis it was 4 µg/mL. Also, the MIC in the data set with Escherichia coli [7] worked out at 1 µg/mL; in the data set on Staphylococcus aureus [8], 1 µg/mL; in the data set on Pseudomonas aeruginosa [9], 8 µg/mL; with Staphylococcus aureus [10], 0.5 µg/mL; in the data set with Escherichia coli [11] it was 2 µg/mL. Besides, in data set [1], the CHI worked out at 333. Further, in data set [2], the HC50 at 3 h stood at 259 µg/mL.
In the case of `CCCCCCCCCCOP(=O)(CCN(CCCN)CCCN)OCCCCCCCCCCOP(=O)(CCN(CCCN)CCCN)OCCCCCCCCCC.Cl.Cl.Cl.Cl.Cl.Cl` (stereo not drawn), the MIC in the data set with Enterococcus faecium was 2 µg/mL; with Escherichia coli [3], greater than 2 µg/mL; in the data set with Pseudomonas aeruginosa [4] it was 4 µg/mL; in data set [5], 1 µg/mL; with Staphylococcus aureus [6] it was 1 µg/mL; in the data set on Enterococcus faecalis, 2 µg/mL. Besides, the MIC came to 2 µg/mL in the data set with Escherichia coli [7]; 2 µg/mL in the data set on Staphylococcus aureus [8]; 4 µg/mL in the data set on Pseudomonas aeruginosa [9]; 1 µg/mL in the data set with Staphylococcus aureus [10]; 16 µg/mL in the data set with Escherichia coli [11]. Further, in [1], the CHI is listed as 46.9. Also, the HC50 at 3 h in data set [2] was 5.2 µg/mL.
As to `CCCCCCCCOP(=O)(CCN(CCCN)CCCN)OCCCCCCCCOP(=O)(CCN(CCCN)CCCN)OCCCCCCCC.Cl.Cl.Cl.Cl.Cl.Cl` (stereo not drawn), the MIC amounted to 4 µg/mL in the data set with Enterococcus faecium; 1 µg/mL in the data set with Escherichia coli [3]; 2 µg/mL in the data set with Pseudomonas aeruginosa [4]; 3 µg/mL in data set [5]; 5 µg/mL with Staphylococcus aureus [6]; 1 µg/mL with Enterococcus faecalis. Moreover, the MIC is 1 µg/mL in the data set with Escherichia coli [7]; 0.5 µg/mL in the data set with Staphylococcus aureus [8]; 2 µg/mL in the data set with Pseudomonas aeruginosa [9]; 0.25 µg/mL with Staphylococcus aureus [10]; 0.5 µg/mL with Escherichia coli [11]. The compound further came in with a CHI in data set [1] of 38.7. In [2], the HC50 at 3 h came to 683 µg/mL.
For `Cl.Cl.Cl.Cl.Cl.Cl.NCCCN(CCCN)CCP(=O)(OCCCCCCCCCCOP(=O)(CCN(CCCN)CCCN)OCCc1ccccc1)OCCc1ccccc1` (stereo not drawn), the MIC with Enterococcus faecium was found to be 128 µg/mL; in the data set on Escherichia coli [3], 16 µg/mL; in the data set with Pseudomonas aeruginosa [4] it was 64 µg/mL; in data set [5], 1 µg/mL; in the data set with Staphylococcus aureus [6], 2 µg/mL; with Enterococcus faecalis, 32 µg/mL. The MIC in the data set on Escherichia coli [7] came out at 64 µg/mL; in the data set on Staphylococcus aureus [8], 2 µg/mL; in the data set with Pseudomonas aeruginosa [9], 64 µg/mL; with Staphylococcus aureus [10], 4 µg/mL; in the data set on Escherichia coli [11], 32 µg/mL. This compound also had a CHI in data set [1] of 31.1. Moreover, in data set [2], the HC50 at 3 h is greater than 500 µg/mL.
With `Cl.Cl.Cl.Cl.Cl.Cl.NCCN(CCN)CCP(=O)(OCCCCCCOP(=O)(CCN(CCN)CCN)OCCc1ccccc1)OCCc1ccccc1` (stereo not drawn), the MIC in the data set with Enterococcus faecium was greater than 128 µg/mL; in the data set on Escherichia coli [3], greater than 128 µg/mL; in the data set on Pseudomonas aeruginosa [4], greater than 128 µg/mL; in [5], 16 µg/mL; in the data set on Staphylococcus aureus [6] it was 64 µg/mL; in the data set with Enterococcus faecalis it was greater than 128 µg/mL. The MIC in the data set on Escherichia coli [7] was greater than 128 µg/mL; in the data set on Staphylococcus aureus [8], 32 µg/mL; in the data set on Pseudomonas aeruginosa [9], greater than 128 µg/mL; in the data set with Staphylococcus aureus [10], 128 µg/mL; in the data set on Escherichia coli [11], greater than 128 µg/mL. The same compound yielded a CHI in data set [1] of 30.9. The HC50 at 3 h in data set [2] is greater than 200 µg/mL.
